Data taken from patent EP0028689A1, “Antimycotic agents containing acylated triazolyl-gamma-fluoropinacolyl derivatives, and their preparation” (BAYER AG, priority 1979, dated 1981).

System: Candida
Assay: Antimicrobial in-vivo activity (oral) in mouse candidosis
Conditions: mice infected i.v. with Candida cells; 100 mg/kg oral one hour before and seven hours after infection; survivors on day 6 p.i.
Experimental: Versuchsbeschreibung: • Mäuse vom Typ SPF-CF1 wurden intravenös mit 1-2 x 10 logaritmisch wachsenden Candida-Zellen, die in physiologischer Kochsalzlösung suspendiert waren, infiziert. Eine Stunde vor und sieben Stunden nach der Infektion wurden die Tiere mit jeweils 100 mg/kg Körpergewicht der Präparate oral behandelt.
+++++ = sehr gute Wirkung = ≥ 90% Überlebende am 6.Tag p.i. ++++ = gute Wirkung = ≥30% Überlebende am 6.Tag p.i. +++ = Wirkung = ≥60% Überlebende am 6.Tag p.i. ++ = schwache Wirkung = ≥40% Überlebende am 6.Tag p.i. + = Spur Wirkung k.W.= keine Wirkung

In the case of `CC(=O)OC(C(Oc1ccc(Cl)cc1C)n1cncn1)C(C)(C)C` (stereo not shown), the Wirkung is reported as “k.W”.
